The results in this text go back to ChEMBL document CHEMBL4359847, “Novel N-aryl nicotinamide derivatives: Taking stock on 3,6-diazabicyclo[3.1.1]heptanes as ligands for neuronal acetylcholine receptors” (Eur J Med Chem, 2019).

Molecules are shown by their SMILES. The source made the active and inactive calls. The calls are words filed in the database; no cut-off is given here.

One test is filed under the species Rattus norvegicus. Description: Selectivity index, ratio of Ki for alpha7 nAChR in rat hippocampus membrane to Ki for alpha4beta2 nAChR in rat cerebral cortex membrane. The class given is cell membranes.
For test [1], the target named is T1, Neuronal acetylcholine receptor; alpha3/beta4 (Homo sapiens, UniProt P30926+P32297). Description: Displacement of [3H]epibatidine from human alpha3beta4 nAChR transfected in […] cell membrane. The class given is cell membranes. For orientation: Displacement assays read how much labelled ligand stays bound in the presence of the test substance.
Test [2] deals with T2, Neuronal acetylcholine receptor; alpha4/beta2 (Rattus norvegicus, UniProt P09483+P12390). Description: Displacement of [3H]epibatidine from alpha4beta2 nAChR in rat cerebral cortex membrane. It is filed as cell membranes.
A short description of test [3]: Selectivity index, ratio of Ki for human alpha3beta4 nAChR in […] cell membrane to Ki for alpha4beta2 nAChR in rat cerebral cortex membrane. The class given is cell-based.
Test [4] deals with Neuronal acetylcholine receptor subunit alpha-7 (Rattus norvegicus, UniProt Q05941). Description: Displacement of [125I]alpha-bungarotoxin from alpha7nAChR in rat hippocampus membrane. It is filed as cell membranes.
Test [5] addresses T1, Neuronal acetylcholine receptor; alpha3/beta4. Description: Agonist activity at human alpha3beta4 nAChR expressed in GH4C1 cells assessed as increase in inward channel current measured after 3 to 4 days at -70 mV holding potential by patch clamp assay. The class given is cell-based. For orientation: The patch-clamp technique gives a direct electrical read-out from membranes.

Test [6] deals with T3, Neuronal acetylcholine receptor; alpha4/beta2 (Homo sapiens, UniProt P17787+P43681). Description: Agonist activity at human alpha4beta2 nAChR expressed in GH4C1 cells assessed as increase in inward channel current measured after 3 to 4 days at -70 mV holding potential by patch clamp assay. It is filed as cell-based.
The target of test [7] is T1, Neuronal acetylcholine receptor; alpha3/beta4. Description: Agonist activity at human alpha3beta4 nAChR expressed in GH4C1 cells assessed as increase in inward channel current at >1 uM measured after 3 to 4 days at -70 mV holding potential by patch clamp assay. The class given is cell-based.
For test [8], the target named is T3, Neuronal acetylcholine receptor; alpha4/beta2. Description: Agonist activity at human alpha4beta2 nAChR expressed in GH4C1 cells assessed as increase in inward channel current measured after 3 to 4 days at -70 mV holding potential by patch clamp assay relative to acetylcholine. The class given is cell-based.
The target of test [9] is T1, Neuronal acetylcholine receptor; alpha3/beta4. Description: Agonist activity at human alpha3beta4 nAChR expressed in GH4C1 cells assessed as inward channel current at 0.01 to 100 uM measured after 3 to 4 days at -70 mV holding potential by patch clamp assay. The class given is cell-based.
For test [10], the target named is T2, Neuronal acetylcholine receptor; alpha4/beta2. Description: Displacement of [3H]cytisine from alpha4beta2 nAChR in rat brain cerebral cortex membrane incubated for 75 mins by scintillation counting method. It is filed as cell membranes.

Chain of Neuronal acetylcholine receptor subunit alpha-7 (Q05941 whole entry): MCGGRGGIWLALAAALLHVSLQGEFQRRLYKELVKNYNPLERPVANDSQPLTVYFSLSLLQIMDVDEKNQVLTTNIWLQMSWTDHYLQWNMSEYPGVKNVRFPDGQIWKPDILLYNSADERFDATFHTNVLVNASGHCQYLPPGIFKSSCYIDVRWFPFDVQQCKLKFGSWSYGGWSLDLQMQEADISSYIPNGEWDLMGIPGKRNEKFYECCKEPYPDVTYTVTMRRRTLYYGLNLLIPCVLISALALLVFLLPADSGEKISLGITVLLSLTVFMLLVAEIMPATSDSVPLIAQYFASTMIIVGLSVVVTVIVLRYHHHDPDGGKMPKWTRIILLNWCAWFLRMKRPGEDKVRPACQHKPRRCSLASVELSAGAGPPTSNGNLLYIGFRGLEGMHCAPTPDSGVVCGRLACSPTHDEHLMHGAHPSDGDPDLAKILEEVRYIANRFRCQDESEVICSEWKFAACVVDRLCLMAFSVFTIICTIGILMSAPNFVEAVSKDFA
T3 sequence (P17787 whole entry): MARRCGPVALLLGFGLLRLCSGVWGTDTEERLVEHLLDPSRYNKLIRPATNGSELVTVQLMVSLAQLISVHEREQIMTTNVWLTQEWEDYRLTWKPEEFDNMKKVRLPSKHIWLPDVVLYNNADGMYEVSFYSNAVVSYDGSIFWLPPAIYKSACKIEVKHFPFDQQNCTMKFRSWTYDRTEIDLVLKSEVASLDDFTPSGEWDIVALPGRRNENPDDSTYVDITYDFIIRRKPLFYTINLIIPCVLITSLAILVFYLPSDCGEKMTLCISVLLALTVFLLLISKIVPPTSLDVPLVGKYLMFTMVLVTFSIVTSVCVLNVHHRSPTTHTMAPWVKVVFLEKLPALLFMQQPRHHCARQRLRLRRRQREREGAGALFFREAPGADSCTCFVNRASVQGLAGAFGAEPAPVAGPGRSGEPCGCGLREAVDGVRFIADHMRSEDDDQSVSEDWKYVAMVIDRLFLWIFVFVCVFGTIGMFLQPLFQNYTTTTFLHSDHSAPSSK
T3 sequence (P43681 whole entry): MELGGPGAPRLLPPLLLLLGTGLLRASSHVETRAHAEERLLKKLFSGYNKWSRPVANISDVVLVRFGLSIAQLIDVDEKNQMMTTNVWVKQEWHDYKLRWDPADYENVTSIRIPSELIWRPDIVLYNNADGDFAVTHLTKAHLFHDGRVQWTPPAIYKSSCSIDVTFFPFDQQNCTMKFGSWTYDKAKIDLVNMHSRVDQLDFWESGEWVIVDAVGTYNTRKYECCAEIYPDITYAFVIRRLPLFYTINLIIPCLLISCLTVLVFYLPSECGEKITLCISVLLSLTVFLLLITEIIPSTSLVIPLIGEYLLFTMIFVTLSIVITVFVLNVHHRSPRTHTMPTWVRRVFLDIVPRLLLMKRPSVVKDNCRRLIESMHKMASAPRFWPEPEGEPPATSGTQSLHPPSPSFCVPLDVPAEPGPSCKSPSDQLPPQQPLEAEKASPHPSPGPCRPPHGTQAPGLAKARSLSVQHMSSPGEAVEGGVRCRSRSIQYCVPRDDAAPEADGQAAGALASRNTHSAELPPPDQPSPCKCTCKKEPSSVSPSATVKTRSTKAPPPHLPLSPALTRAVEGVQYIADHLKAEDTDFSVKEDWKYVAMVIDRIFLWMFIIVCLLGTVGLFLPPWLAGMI
T1 sequence (P30926 whole entry): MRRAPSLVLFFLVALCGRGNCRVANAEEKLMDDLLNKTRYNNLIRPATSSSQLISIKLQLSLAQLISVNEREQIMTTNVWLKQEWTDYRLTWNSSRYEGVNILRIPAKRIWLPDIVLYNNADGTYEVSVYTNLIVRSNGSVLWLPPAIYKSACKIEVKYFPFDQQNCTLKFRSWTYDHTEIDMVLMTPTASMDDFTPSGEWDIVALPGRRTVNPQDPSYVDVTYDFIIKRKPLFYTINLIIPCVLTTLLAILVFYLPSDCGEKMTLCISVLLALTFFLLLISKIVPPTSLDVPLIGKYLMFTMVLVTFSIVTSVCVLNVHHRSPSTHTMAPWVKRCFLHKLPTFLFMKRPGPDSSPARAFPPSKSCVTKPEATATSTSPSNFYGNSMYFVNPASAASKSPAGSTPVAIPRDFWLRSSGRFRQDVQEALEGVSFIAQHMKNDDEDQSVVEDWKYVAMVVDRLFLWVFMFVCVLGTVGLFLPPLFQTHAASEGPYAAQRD
T1 sequence (P32297 whole entry): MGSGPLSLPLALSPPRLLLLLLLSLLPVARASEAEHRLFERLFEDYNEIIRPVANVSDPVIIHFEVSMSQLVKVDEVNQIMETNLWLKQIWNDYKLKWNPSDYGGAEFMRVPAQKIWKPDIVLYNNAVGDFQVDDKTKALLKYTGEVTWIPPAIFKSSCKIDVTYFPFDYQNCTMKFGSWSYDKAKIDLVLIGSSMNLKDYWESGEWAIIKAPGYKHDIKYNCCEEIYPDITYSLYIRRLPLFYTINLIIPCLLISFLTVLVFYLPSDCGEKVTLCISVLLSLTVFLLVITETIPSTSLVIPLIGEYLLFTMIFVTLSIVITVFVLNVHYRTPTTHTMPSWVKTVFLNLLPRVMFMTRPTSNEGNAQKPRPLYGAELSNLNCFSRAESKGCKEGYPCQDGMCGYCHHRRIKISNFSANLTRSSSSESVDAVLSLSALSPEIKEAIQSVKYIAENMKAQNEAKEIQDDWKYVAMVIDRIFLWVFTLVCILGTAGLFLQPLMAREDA
T2 sequence (P09483 whole entry): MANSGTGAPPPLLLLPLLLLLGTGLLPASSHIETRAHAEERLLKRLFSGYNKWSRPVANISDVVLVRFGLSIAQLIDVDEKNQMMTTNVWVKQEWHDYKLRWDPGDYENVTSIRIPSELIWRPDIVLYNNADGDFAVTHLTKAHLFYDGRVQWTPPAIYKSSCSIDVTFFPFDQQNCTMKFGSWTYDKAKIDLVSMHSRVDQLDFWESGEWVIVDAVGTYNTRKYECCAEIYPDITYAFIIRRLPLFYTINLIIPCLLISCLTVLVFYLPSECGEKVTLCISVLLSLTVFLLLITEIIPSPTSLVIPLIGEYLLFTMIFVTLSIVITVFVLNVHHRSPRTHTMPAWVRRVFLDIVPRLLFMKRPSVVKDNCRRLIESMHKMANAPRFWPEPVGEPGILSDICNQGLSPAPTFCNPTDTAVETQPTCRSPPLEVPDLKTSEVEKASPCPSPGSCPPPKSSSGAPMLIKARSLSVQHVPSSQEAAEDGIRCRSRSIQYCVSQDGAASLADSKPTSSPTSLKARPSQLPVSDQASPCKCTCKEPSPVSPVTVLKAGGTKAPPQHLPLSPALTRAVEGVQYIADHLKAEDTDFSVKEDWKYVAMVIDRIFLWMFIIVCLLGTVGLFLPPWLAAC
T2 sequence (P12390 whole entry): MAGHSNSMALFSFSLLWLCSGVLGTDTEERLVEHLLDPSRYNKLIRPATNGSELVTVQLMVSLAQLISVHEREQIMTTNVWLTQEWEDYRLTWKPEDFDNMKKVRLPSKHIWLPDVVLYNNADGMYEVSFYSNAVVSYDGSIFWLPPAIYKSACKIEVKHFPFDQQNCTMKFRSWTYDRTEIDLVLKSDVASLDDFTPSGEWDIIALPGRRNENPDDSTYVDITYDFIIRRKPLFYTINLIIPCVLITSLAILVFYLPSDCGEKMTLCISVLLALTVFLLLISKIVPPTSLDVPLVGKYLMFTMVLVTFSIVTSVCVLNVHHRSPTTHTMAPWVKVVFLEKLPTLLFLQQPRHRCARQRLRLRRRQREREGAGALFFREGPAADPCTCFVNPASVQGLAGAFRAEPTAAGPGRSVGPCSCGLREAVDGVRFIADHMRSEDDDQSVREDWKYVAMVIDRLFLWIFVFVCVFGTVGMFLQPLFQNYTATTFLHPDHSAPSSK

By Ki is commonly meant a dissociation constant, usually derived from enzyme kinetics or from competition with a known ligand. Low values mean tighter binding, high ones weaker binding. Turning to `O=C(Nc1ccc(F)cc1F)c1cncc(N2CC3CC(C2)N3)c1`, the results for the Ratio Ki (in the test listed under Rattus norvegicus; in [3]) were more than 980000 and 980, respectively. In addition, the values for the Ki in test [1], in [2] and in test [4] were 50 nM, 0.051 nM and more than 50000 nM, respectively.

As usually defined, the EC50 is the concentration that produces a half-maximal response. For the compound `O=C(Nc1ccc(F)cc1)c1cncc(N2CC3CC(C2)N3)c1`, the values for the Ratio Ki (in the test filed under Rattus norvegicus; in test [3]) were 3.32e+06 and 8100, respectively. For the same compound, the results for the Ki in [1], in test [2] and in test [4] were 81 nM, 0.01 nM and 33200 nM, respectively. Moreover, the results for the EC50 in [5] and in test [6] were more than 10000 nM and 520 nM, respectively. Further, in test [7], the result was Active. Moreover, in test [8], the Imax was determined as 41%.

With `O=C(Nc1ccc2c(c1)OCO2)c1cncc(N2CC3CC(C2)N3)c1`, the Ratio Ki in the test filed under Rattus norvegicus came out at 79200; in test [3], 1070. The Ki in [1] is 113 nM; in test [2] it was 0.106 nM; in test [4], 8400 nM.

`O=C(Nc1cccc(Cl)c1)c1cncc(N2CC3CC(C2)N3)c1`: the values for the Ratio Ki (in the test listed under Rattus norvegicus; in test [3]) were 545000 and 1400, respectively. The Ki in test [1] came out at 59 nM; in [2], 0.042 nM; in test [4], 22900 nM. In addition, in test [6], the EC50 is 1000 nM. The result in test [9] was inactive. For the same compound, in [8], the Imax was 37%.

For the compound `COc1cccc(NC(=O)c2cncc(N3CC4CC(C3)N4)c2)c1`, the results for the Ratio Ki (in the test listed under Rattus norvegicus; in test [3]) were more than 89300 and 473, respectively. Besides, the Ki in [1] was 265 nM; in [2], 0.56 nM; in test [4] it was more than 50000 nM. The results for the EC50 in [5] and in [6] were more than 10000 nM and 600 nM, respectively. In addition, the result in [7] was Active. In addition, the Imax in [8] stood at 38%.

With `O=C(Nc1ccc(Cl)cc1)c1cncc(N2CC3CC(C2)N3)c1`, the figures for the Ratio Ki (in the test filed under Rattus norvegicus; in test [3]) were 32200 and 304, respectively. Also, the figures for the Ki in test [1], in test [2] and in [4] were 123 nM, 0.404 nM and 13000 nM, respectively.

With `Clc1ccc(N2CC3CCC(C2)N3)cn1`, the affinity in test [10], expressed as Ki, was 0.95 nM.

`O=C(NCc1ccccc1)c1cncc(N2CC3CC(C2)N3)c1`: the figures for the Ratio Ki (in the test listed under Rattus norvegicus; in test [3]) were 594 and 889, respectively. Further, the inhibition constant Ki in [1] came to 1600 nM; in test [2], 1.8 nM; in test [4], 1070 nM.

Consider `O=C(Nc1ccc(I)cc1)c1cncc(N2CC3CC(C2)N3)c1`, for which the Ratio Ki in the test listed under Rattus norvegicus amounted to 63900; in [3] it was 281. For the same compound, the figures for the Ki in [1], in [2] and in test [4] were 103 nM, 0.366 nM and 23400 nM, respectively.

On to `O=C(c1cncc(N2CC3CC(C2)N3)c1)N1CCc2ccccc2C1`, for which the Ratio Ki in the test filed under Rattus norvegicus came out at 32300; in [3], 677. Besides, the values for the Ki in [1], in test [2] and in test [4] were 21 nM, 0.031 nM and 1000 nM, respectively.

Consider `COc1ccc(NC(=O)c2cncc(N3CC4CC(C3)N4)c2)cc1OC`, for which the Ratio Ki in the test filed under Rattus norvegicus turned out to be 2780; in [3] it was 623. Moreover, the Ki is 516 nM in [1], 0.828 nM in [2] and 2300 nM in test [4].

In the case of `O=C(Nc1cccc(F)c1)c1cncc(N2CC3CC(C2)N3)c1`, the Ratio Ki in the test listed under Rattus norvegicus was determined as 634000; in [3] it was 636. Besides, the Ki in test [1] was determined as 28 nM; in [2], 0.044 nM; in test [4], 27900 nM.

With `CCc1cccc(NC(=O)c2cncc(N3CC4CC(C3)N4)c2)c1`, the results for the Ratio Ki (in the test filed under Rattus norvegicus; in [3]) were more than 38500 and 235, respectively. The inhibitory constant (Ki) in [1] is 306 nM; in test [2] it was 1.3 nM; in [4], more than 50000 nM.

In the case of `O=C(Nc1ccccc1F)c1cncc(N2CC3CC(C2)N3)c1`, the Ratio Ki in the test filed under Rattus norvegicus came to 10800; in test [3] it was 324. For the same compound, the Ki in [1] is 102 nM; in [2] it was 0.315 nM; in [4], 3400 nM.

In the case of `O=C(c1cncc(N2CC3CC(C2)N3)c1)N1CCCc2ccccc21`, the Ratio Ki in the test filed under Rattus norvegicus was more than 255000; in test [3], 316. Besides, the inhibitory constant (Ki) in test [1] is 62 nM; in test [2], 0.196 nM; in test [4], more than 50000 nM.

In the case of `O=C(Nc1ccccc1)c1cncc(N2CC3CC(C2)N3)c1`, the results for the Ratio Ki (in the test filed under Rattus norvegicus; in test [3]) were 2180 and 174, respectively. In addition, the Ki in test [1] worked out at 192 nM; in test [2] it was 1.1 nM; in test [4], 2400 nM.

Take `COc1cc(NC(=O)c2cncc(N3CC4CC(C3)N4)c2)cc(OC)c1`: the Ratio Ki in the test listed under Rattus norvegicus was determined as 43800; in test [3], 2030. The Ki in [1] came to 2000 nM; in test [2], 0.985 nM; in [4] it was 43100 nM.
